Reference: patent US20230085307A1, “PYRIDAZINONE COMPOUND AND HERBICIDE” (NISSAN CHEMICAL CORPORATION, priority 2019, published 2023)

Key:
[1] = system: green foxtail; assay: Test Example 4: herbicidal effect by soil treatment (Table 19, symbol G); assay type: in vivo, green foxtail (Setaria viridis)
Summary of the method: (§1)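 Herbicidal effect was rated 3 weeks after treatment, using the scoring criteria of an earlier test. The compound, formulated as an emulsion and diluted in water to a set herbicide amount, had been sprayed uniformly on soil over freshly sown seeds. Growth took place in a greenhouse at 25° C. to 30° C.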

[2] = system: persian speedwell; assay: Test Example 5: herbicidal effect by foliage application, plastic box (Table 20, symbol R); assay type: in vivo, Persian speedwell (Veronica persica); details: foliage application
Summary of the method: (§2)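 Foliar spray test: emulsion formulation diluted in water to a set application rate, sprayed onto 14-day-old plants raised in diluvial soil at 25° C to 30° C under glass. Both herbicidal effect and crop effect rated visually three weeks later.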

[3] = system: wild oat; assay: Test Example 4: herbicidal effect by soil treatment (Table 19, symbol I); assay type: in vivo, wild oat (Avena fatua)
Summary of the method: as §1

[4] = system: blackgrass; assay: Test Example 4: herbicidal effect by soil treatment (Table 19, symbol J); assay type: in vivo, blackgrass (Alopecurus myosuroides)
Summary of the method: as §1

[5] = system: persian speedwell; assay: Test Example 4: herbicidal effect by soil treatment (Table 19, symbol R); assay type: in vivo, Persian speedwell (Veronica persica)
Summary of the method: as §1

[6] = system: barnyard grass; assay: Test Example 4: herbicidal effect by soil treatment (Table 19, symbol H); assay type: in vivo, barnyard grass (Echinochloa crus-galli)
Summary of the method: as §1

[7] = system: redroot pigweed; assay: Test Example 5: herbicidal effect by foliage application, plastic box (Table 20, symbol N); assay type: in vivo, redroot pigweed (Amaranthus retroflexus); details: foliage application
Summary of the method: as §2

[8] = system: oval-leafed pondweed; assay: Test Example 2: herbicidal activity, application during weed generation under submerged conditions (Table 17, symbol C); assay type: in vivo, oval-leafed pondweed (Monochoria vaginalis); details: AAH 320 g/ha; application during weed generation, submerged conditions
Summary of the method: (§3)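 Wagner pot, alluvial soil, 4 cm flood; mixed sowing of all species; greenhouse 25° C.–30° C. Emulsifiable formulation, water-diluted to predetermined dose, applied to paddy water at 1–2 leaf stage. Effect rated at 3 wk using the earlier test's scoring criteria.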

[9] = system: southern crabgrass; assay: Test Example 4: herbicidal effect by soil treatment (Table 19, symbol F); assay type: in vivo, southern crabgrass (Digitaria ciliaris)
Summary of the method: as §1

[10] = system: velvetleaf; assay: Test Example 4: herbicidal effect by soil treatment (Table 19, symbol M); assay type: in vivo, velvetleaf (Abutilon theophrasti)
Summary of the method: as §1

[11] = system: late watergrass; assay: Test Example 2: herbicidal activity, application during weed generation under submerged conditions (Table 17, symbol A); assay type: in vivo, late watergrass (Echinochloa oryzicola); details: AAH 320 g/ha; application during weed generation, submerged conditions
Summary of the method: as §3

[12] = system: windgrass; assay: Test Example 5: herbicidal effect by foliage application, plastic box (Table 20, symbol L); assay type: in vivo, windgrass (Apera spica-venti); details: foliage application
Summary of the method: as §2

[13] = system: barnyard grass; assay: Test Example 5: herbicidal effect by foliage application, plastic box (Table 20, symbol H); assay type: in vivo, barnyard grass (Echinochloa crus-galli); details: foliage application
Summary of the method: as §2

[14] = system: chickweed; assay: Test Example 5: herbicidal effect by foliage application, plastic box (Table 20, symbol P); assay type: in vivo, common chickweed (Stellaria media); details: foliage application
Summary of the method: as §2

[15] = system: redroot pigweed; assay: Test Example 4: herbicidal effect by soil treatment (Table 19, symbol N); assay type: in vivo, redroot pigweed (Amaranthus retroflexus)
Summary of the method: as §1

[16] = system: Japanese bulrush; assay: Test Example 2: herbicidal activity, application during weed generation under submerged conditions (Table 17, symbol B); assay type: in vivo, Japanese bulrush (Schoenoplectus juncoides); details: AAH 320 g/ha; application during weed generation, submerged conditions
Summary of the method: as §3

[17] = 320 g/ha, evaluated three weeks after application
[18] = amount of applied herbicide 320 g/ha
[19] = AAH 320 g/ha, three weeks after application
[20] = 320 g/ha, three weeks after application

CCCC(=O)Oc1c(C)nn(C)c(=O)c1-c1c(-c2ccc(C(C)=O)cc2)sc2ccc(F)cc12 [2-078]
herbicidal effect rating, G: green foxtail ([1]; 320 g/ha): 0 (Herbicidal rate of 5% or less (almost no effect))
herbicidal effect on R: persian speedwell [2, 17]: 5 (Herbicidal rate of 90% or more (almost completely withered))
herbicidal effect rating, I: wild oat ([3]; 320 g/ha): 0 (Herbicidal rate of 5% or less (almost no effect))
herbicidal effect rating, J: blackgrass ([4]; 320 g/ha): 1 (Herbicidal rate of 5% or more and less than 20%)
herbicidal effect rating, R: persian speedwell ([5]; 320 g/ha): 5 (Herbicidal rate of 90% or more (almost completely withered))
herbicidal effect rating, H: barnyard grass ([6]; 320 g/ha): 0 (Herbicidal rate of 5% or less (almost no effect))
herbicidal effect on N: redroot pigweed [7, 17]: 5 (Herbicidal rate of 90% or more (almost completely withered))
herbicidal effect rating, C: oval-leafed pondweed [8]: 4 (Herbicidal rate of 70% or more and less than 90%)
herbicidal effect rating, F: southern crabgrass ([9]; 320 g/ha): 0 (Herbicidal rate of 5% or less (almost no effect))
herbicidal effect rating, M: velvetleaf ([10]; 320 g/ha): 3 (Herbicidal rate of 40% or more and less than 70%)
herbicidal effect rating, A: late watergrass [11]: 3 (Herbicidal rate of 40% or more and less than 70%)
herbicidal effect on L: windgrass [12, 17]: 5 (Herbicidal rate of 90% or more (almost completely withered))
herbicidal effect on H: barnyard grass [13, 17]: 2 (Herbicidal rate of 20% or more and less than 40%)
herbicidal effect on P: chickweed [14, 17]: 5 (Herbicidal rate of 90% or more (almost completely withered))
herbicidal effect rating, N: redroot pigweed ([15]; 320 g/ha): 4 (Herbicidal rate of 70% or more and less than 90%)
herbicidal effect rating, B: Japanese bulrush [16]: 4 (Herbicidal rate of 70% or more and less than 90%)

Cc1nn(C)c(=O)c(-c2c(-c3cccc(OC(C)C)c3)sc3ccc(F)cc23)c1O [2-215]
G: green foxtail, herbicidal effect rating [1, 18]: 5 (Herbicidal rate of 90% or more (almost completely withered))
herbicidal effect on R: persian speedwell (criteria 0-5) [2, 17]: 5 (Herbicidal rate of 90% or more (almost completely withered))
I: wild oat, herbicidal effect rating [3, 18]: 0 (Herbicidal rate of 5% or less (almost no effect))
J: blackgrass, herbicidal effect rating [4, 18]: 1 (Herbicidal rate of 5% or more and less than 20%)
R: persian speedwell, herbicidal effect rating [5, 18]: 4 (Herbicidal rate of 70% or more and less than 90%)
H: barnyard grass, herbicidal effect rating [6, 18]: 5 (Herbicidal rate of 90% or more (almost completely withered))
herbicidal effect on N: redroot pigweed (criteria 0-5) [7, 17]: 5 (Herbicidal rate of 90% or more (almost completely withered))
herbicidal effect rating, C: oval-leafed pondweed [8]: 0 (Herbicidal rate of 5% or less (almost no effect))
F: southern crabgrass, herbicidal effect rating [9, 18]: 5 (Herbicidal rate of 90% or more (almost completely withered))
M: velvetleaf, herbicidal effect rating [10, 18]: 2 (Herbicidal rate of 20% or more and less than 40%)
herbicidal effect rating, A: late watergrass [11]: 2 (Herbicidal rate of 20% or more and less than 40%)
herbicidal effect on L: windgrass (criteria 0-5) [12, 17]: 3 (Herbicidal rate of 40% or more and less than 70%)
herbicidal effect on H: barnyard grass (criteria 0-5) [13, 17]: 5 (Herbicidal rate of 90% or more (almost completely withered))
herbicidal effect on P: chickweed (criteria 0-5) [14, 17]: 5 (Herbicidal rate of 90% or more (almost completely withered))
N: redroot pigweed, herbicidal effect rating [15, 18]: 5 (Herbicidal rate of 90% or more (almost completely withered))
herbicidal effect rating, B: Japanese bulrush [16]: 0 (Herbicidal rate of 5% or less (almost no effect))

CCCC(=O)Oc1c(C)nn(C)c(=O)c1-c1c(-c2ccc(C(F)(F)F)cc2)sc2ccccc12 [1-130]
G: green foxtail, herbicidal effect rating ([1]; AAH 320 g/ha): 3 (Herbicidal rate of 40% or more and less than 70%)
R: persian speedwell, herbicidal effect [2, 19]: 5 (Herbicidal rate of 90% or more (almost completely withered))
I: wild oat, herbicidal effect rating ([3]; AAH 320 g/ha): 0 (Herbicidal rate of 5% or less (almost no effect))
J: blackgrass, herbicidal effect rating ([4]; AAH 320 g/ha): 0 (Herbicidal rate of 5% or less (almost no effect))
R: persian speedwell, herbicidal effect rating ([5]; AAH 320 g/ha): 3 (Herbicidal rate of 40% or more and less than 70%)
H: barnyard grass, herbicidal effect rating ([6]; AAH 320 g/ha): 3 (Herbicidal rate of 40% or more and less than 70%)
N: redroot pigweed, herbicidal effect [7, 19]: 4 (Herbicidal rate of 70% or more and less than 90%)
herbicidal effect rating, C: oval-leafed pondweed [8]: 0 (Herbicidal rate of 5% or less (almost no effect))
F: southern crabgrass, herbicidal effect rating ([9]; AAH 320 g/ha): 1 (Herbicidal rate of 5% or more and less than 20%)
M: velvetleaf, herbicidal effect rating ([10]; AAH 320 g/ha): 1 (Herbicidal rate of 5% or more and less than 20%)
herbicidal effect rating, A: late watergrass [11]: 2 (Herbicidal rate of 20% or more and less than 40%)
L: windgrass, herbicidal effect [12, 19]: 3 (Herbicidal rate of 40% or more and less than 70%)
H: barnyard grass, herbicidal effect [13, 19]: 0 (Herbicidal rate of 5% or less (almost no effect))
P: chickweed, herbicidal effect [14, 19]: 5 (Herbicidal rate of 90% or more (almost completely withered))
N: redroot pigweed, herbicidal effect rating ([15]; AAH 320 g/ha): 3 (Herbicidal rate of 40% or more and less than 70%)
herbicidal effect rating, B: Japanese bulrush [16]: 2 (Herbicidal rate of 20% or more and less than 40%)

Cc1nn(C)c(=O)c(-c2c(-c3ccc4c(c3)OCO4)sc3ccccc23)c1O [1-087]
herbicidal effect rating, G: green foxtail [1, 18]: 5 (Herbicidal rate of 90% or more (almost completely withered))
herbicidal effect grade, R: persian speedwell [2, 20]: 5 (Herbicidal rate of 90% or more (almost completely withered))
herbicidal effect rating, I: wild oat [3, 18]: 0 (Herbicidal rate of 5% or less (almost no effect))
herbicidal effect rating, J: blackgrass [4, 18]: 0 (Herbicidal rate of 5% or less (almost no effect))
herbicidal effect rating, R: persian speedwell [5, 18]: 5 (Herbicidal rate of 90% or more (almost completely withered))
herbicidal effect rating, H: barnyard grass [6, 18]: 4 (Herbicidal rate of 70% or more and less than 90%)
herbicidal effect grade, N: redroot pigweed [7, 20]: 5 (Herbicidal rate of 90% or more (almost completely withered))
herbicidal effect rating, C: oval-leafed pondweed [8]: 3 (Herbicidal rate of 40% or more and less than 70%)
herbicidal effect rating, F: southern crabgrass [9, 18]: 2 (Herbicidal rate of 20% or more and less than 40%)
herbicidal effect rating, M: velvetleaf [10, 18]: 0 (Herbicidal rate of 5% or less (almost no effect))
herbicidal effect rating, A: late watergrass [11]: 2 (Herbicidal rate of 20% or more and less than 40%)
herbicidal effect grade, L: windgrass [12, 20]: 0 (Herbicidal rate of 5% or less (almost no effect))
herbicidal effect grade, H: barnyard grass [13, 20]: 4 (Herbicidal rate of 70% or more and less than 90%)
herbicidal effect grade, P: chickweed [14, 20]: 5 (Herbicidal rate of 90% or more (almost completely withered))
herbicidal effect rating, N: redroot pigweed [15, 18]: 5 (Herbicidal rate of 90% or more (almost completely withered))
herbicidal effect rating, B: Japanese bulrush [16]: 1 (Herbicidal rate of 5% or more and less than 20%)
